# From patent US8497089B2, “Method to predict toxicity using the analysis of dynamic organelle behaviour” (Innovative Concepts in Drug Development (ICDD), priority 2007, dated 2013)
# Where a name gives a salt, the structure may show the parent alone.
# Legend:
# [1] = tested on: primary human fibroblasts; assay: Variations of mitochondrial motility; type: cell-based; conditions: 0.1 μM, 30 minutes to 16 hours at 37° C, vs vehicle; FIG. 2
# Procedure: The speed of an organelle' movements is measured by the displacement in μm of this organelle within the lapse of two captured frames. This measure is repeated over the total length of the image capture. Speed can be expressed as an average velocity observed for an organelle over the duration of the capture or by the maximal velocity observed for an organelle over the same duration.
# The amplitude of organelle movements is expressed as a variable of the frequency of bursts in the total displacement of one organelle. A burst is defined as a sudden displacement within 30% of the maximal displacements of an organelle during the period of capture.
# The frequency of organelle movements is expressed as a number of periods during which the organelle remains immobile.
# (§1) Images were captured for 20-40 frames every 3-15 sec on a z scale spanning 1 μm around the initial center of focus. Z slides were reconstructed to generate a movie that was further analyzed for mitochondrial tracking, shape recognition, length measurements and intensities measurements.
# Mitochondrial displacement was assessed by the measure of the mitochondrial velocity, the amplitude of its movement and particularly the frequency of bursts and the frequency of movements represented by the periods of movement arrests (FIG. 2). […]
# [2] = tested on: primary human fibroblasts; assay: Variations of mitochondrial morphology (mitochondria length, doughnut formation); type: cell-based; conditions: 0.1 to 10 μM, in percent of the vehicle
# Description: Measured parameters can include, but are not restricted to, the length of the mitochondria allowing for an appreciation of the equilibrium between fusion and fission, the number of mitochondria in a doughnut shape per cell, the number of mitochondrial derived vesicle per cell and the number of mitochondria undergoing swelling/aggregation per cell.
# as §1
# Changes in mitochondrial morphology, i.e. in the mitochondria length and in the formation of doughnuts, were observed associated with compound toxicity in a dose dependent manner.
# The mitochondria length and the formation of doughnuts are two parameters which indicate the dynamic modulation of the fission-fusion phenomenon that occurs in the mitochondria. When very short, the mitochondria cannot assume a doughnut shape anymore, thus making the loss of the doughnut shapes a signal very significant of a toxicity than cannot be compensate by the fission-fusion dynamics. When the equilibrium of fission-fusion is impaired the fragmentation of the mitochondria is associated with neurodegeneration (Knott et al., 2008).
# [3] = tested on: primary human fibroblasts; assay: Variations of mitochondrial relationship with the cytoskeleton (area containing entwined mitochondria); conditions: area containing entwined mitochondria in percent of total cell area; FIG. 4 for paclitaxel
variations of mitochondria length ([2]; FIG. 3A),variations of the formation of doughnuts ([2]; FIG. 3B),SMILES,number of immobilization periods of mitochondria [1],variations of the mitochondrial motility [1],variation of mitochondrial relationship with the cytoskeleton [3]
induced variations,induced variations,Cc1ccc(NC(=O)c2ccc(CN3CCN(C)CC3)cc2)cc1Nc1nccc(-c2cccnc2)n1 [imatinib mesylate],increasing the number of immobilization periods of mitochondria,induced variations of the mitochondrial motility,did not induce any variation
–,–,CC(=O)O[C@H]1C(=O)[C@@]2(C)[C@H]([C@H](OC(=O)c3ccccc3)[C@]3(O)C[C@H](OC(=O)[C@H](O)[C@@H](NC(=O)c4ccccc4)c4ccccc4)C(C)=C1C3(C)C)[C@]1(OC(C)=O)CO[C@@H]1C[C@@H]2O [paclitaxel],–,–,affected the relationship of mitochondria with cytoskeleton in a dose-dependent manner
